Experimental data: US9889180B2, “Method of treating cancer” (Agency for Science, Technology and Research, priority 2012, dated 2018)

Columns and labels:
IFNGR1 promoter = experiment: ChIP analysis of EZH2 and H3K27me3 enrichments at IFNGR1 in DU145 cells; format: cell-based, human; details: DZNep (2.5 μM), 3 days
Experimental: ChIP assays were performed as described previously. […] The immunoprecipitated DNA was quantified by quantitative real-time PCR using KAPA SyBr Fast qPCR kit (KAPA biosystems) with the specific ChIP primers as listed in the Table 4. Quantification of binding to the promoter was defined as the percentage of the whole cell lysate input DNA. The fold enrichment was derived by normalizing the specific antibody enriched against the IgG-enriched chromatin. CNR1 serves a positive control and Actin is a negative control. Significance of target genes was assessed relative to Actin level.

DU145 xenograft tumor = DU145 xenograft tumor growth in male athymic nude mice; format: in vivo; details: IFN-γ 1×10^7 IU/kg i.p. daily, DZNep 1 mg/kg s.c. every alternating day, 38 days
Experimental: For in vivo evaluation of DZNep and IFN-γ treatment, the experiments were conducted in compliance with animal protocol approved by the ASTAR-Biopolis Institutional Animal Care and Use Committee (IACUC) of Singapore. DU145 cells were subcutaneously injected into 6-8 week male nude mice at 5×10^6 cells, followed by treatment with vehicle, IFN-γ (1×10^7 IU/kg) alone, DZNep (1 mg/kg) alone or combined DZNep (1 mg/kg) with IFN-γ (1×10^7IU/kg). IFN-γ was administered by intraperitoneal injection daily and DZNep by subcutaneous injection on every alternating day over a duration of 38 days after average tumor size reached around 150 mm^3. Tumors were measured by vernier calliper at least twice per week and tumors volume was calculated with formula: V=W*W*L/2. Each xenograft treatment arm comprised of 5-8 mice. Differences among groups and treatments were determined by ANOVA followed by t tests. (***p<0.001, n.s=not significant) Error bars represent means±s.e.m

[1] = system: EZH2 and IFNGR1 expression; experiment: Immunohistochemistry of EZH2 and IFNGR1 in DU145 xenograft tumors; format: in vivo; details: tumors resected from treated mice
Experimental: Tissue microarray slides (PR956, BR1503b, LC2083, and LV6161) were purchased from US Biomax. Staining and image analysis of tissue microarray were performed by Histopathology Department from Institute of Molecular and Cell Biology, Agency for Science, Technology, and Research (A*STAR), Singapore. Anti-EZH2 (D2C9 XP) antibody was purchased from Cell Signaling, anti-MYC (9E10) and anti-IFNGR1 antibody (GIR-94) was purchased from Santa Cruz Biotechnology. Briefly, five-micron paraffin-embedded tissue sections cut, deparaffinized, rehydrated, antigens were retrieved by Proteinase K solution; sections were then incubated in 3% H2O2 at room temperature to block endogenous peroxidase. Slides were incubated in primary antibody against EZH2 or IFNGR1 for 45 mins followed by 30 min incubation with anti-mouse Labelled Polymer (Dako, Calif.). Specificity of the immunostaining was determined by the inclusion of isotype-specific IgG as negative control. […]
For in vivo evaluation of DZNep and IFN-γ treatment, the experiments were conducted in compliance with animal protocol approved by the ASTAR-Biopolis Institutional Animal Care and Use Committee (IACUC) of Singapore. […] Tumors were measured by vernier calliper at least twice per week and tumors volume was calculated with formula: V=W*W*L/2. […] Differences among groups and treatments were determined by ANOVA followed by t tests. […]

In the case of `Cl.Nc1nccc2c1ncn2[C@@H]1C=C(CO)[C@@H](O)[C@H]1O` [DZNep, (−)-1-[(1R,4R,5S)-3-(Hydroxymethyl)-4,5-dihydroxy-2-cyclopenten-1-yl]4-aminoimidazo[4,5-c]pyridine hydrochloride], the “EZH2 and H3K27me3 enrichments at the IFNGR1 gene promoter” value (IFNGR1 promoter) is reported as “reduced both EZH2 and H3K27me3 enrichments”, the xenograft tumor growth (DU145 xenograft tumor) is reported as “slowed down the tumor growth” and the “EZH2 expression in tumors (IHC)” value [1] is reported as “downregulation of EZH2”. For the same compound, the “IFNGR1 expression in tumors (IHC)” value [1] was “upregulation of IFNGR1”.
